In patent US20240343699A1, “DERIVATIVES OF SUBSTITUTED MORPHOLINES AND USES THEREOF” (Supernus Pharmaceuticals, Inc., priority 2023, published 2024):
Entries after “also recorded” stand apart in the source; their conditions may differ.

Experiments:
prepulse inhibition = test: Prepulse inhibition (PPI) of the auditory startle response, apomorphine-impairment model
in vivo = conditions: beagle, dog, plasma, po, 80 mg/kg
[1] = Stability in human plasma with protease inhibitor cocktail and individual amidase/esterase inhibitors; format: in vitro ADME
Method: Plasma Preparation. Whole blood was centrifuged at 1174×g for 30 min. Aliquots of the supernatant were then transferred to 5 mL centrifuge tubes.
Stability of COMPOUND A in Human and Rat Plasma (circulating enzymes) in the Presence of Protease Inhibitor Cocktail. COMPOUND A was added to plasma with and without protease inhibitor cocktail and incubated to study inhibition of test article (COMPOUND A) degradation. […] Plasma with and without inhibitor cocktail was aliquoted into 1.5 mL tubes to a volume of 950 μL, then preincubated for 15 min. An aliquot (50 μL) of test article stock solution was added to plasma with and without inhibitor and tubes were vortexed then incubated at 37° C. Degradation began with the addition of test article. Aliquots (50 μL) were taken at 0, 15, 30, 60, and 120 min after being vortexed and were quenched in 150 μL acetonitrile/0.1% formic acid solution and briefly vortexed then immediately frozen at −80° C. Stability was determined by measuring loss of parent compound using LC/MS/MS methods. Each exposure condition and time point were done in triplicate.
Stability of COMPOUND A in Human and Rat Plasma (circulating enzymes) in the Presence of Individual Protease Inhibitors. In addition to using a cocktail of protease inhibitors, individual inhibitors were used in plasma. […] Stability was determined by measuring loss of parent compound using LC/MS/MS methods. […]

amidase = test: Stability in the presence of amidase and amidase inhibitors in PBS; format: biochemical; conditions: amidase 50 units in PBS
Method: Stability of COMPOUND A in the Presence of Amidase in Pure System. […] Test article (COMPOUND A) stock solution was prepared in 100% DMSO at a concentration of 10 mM. An aliquot (50 μL) of test article stock solution was added to 950 μL of PBS with and without amidase (50 units) in 1.5 mL tubes, and the mixture was vortexed and incubated at 37° C. with 5% CO2 for 120 min. Samples (50 μL) were taken at 0, 15, 30, 60, and 120 min after being vortexed. Samples were quenched in 150 μL acetonitrile/0.1% formic acid solution and briefly vortexed then immediately frozen at −80° C. Stability was determined by measuring loss of parent compound using LC/MS/MS methods. Each exposure condition and time point were done in triplicate.
Stability of COMPOUND A in the Presence of Amidase and Amidase Inhibitors in a Phosphate-buffered Saline (PBS). To confirm inhibition of the amidase, individual inhibitors were added to PBS with amidase (50 units). A solution without amidase and without inhibitors was also tested as a control. The individual inhibitors tested were Chloroacetone at 200 μM and MAFP at 40 nM. Amidase solution was prepared as described above and inhibitors were added to the solutions to the intended concentrations. […] Stability was determined by measuring loss of parent compound using LC/MS/MS methods. […]

[2] = PK after single PO administration of COMPOUND A
[3] = COMPOUND C 60 mg/kg PO + apomorphine
[4] = COMPOUND C 90 mg/kg PO + apomorphine
[5] = COMPOUND C 120 mg/kg PO + apomorphine

CCOc1ccccc1OC[C@@H]1CN(C(=O)OC(OC(=O)[C@H](N)C(C)C)C(C)C)CCO1 (stereo partly drawn) [COMPOUND C]
% PPI (mean ± SEM) (prepulse inhibition; [3]): 43.6 ± 5.0% | Acoustic Startle (AU) (mean ± SEM) (prepulse inhibition; [3]): 1719.1 ± 211.2 AU | % PPI (mean ± SEM) (prepulse inhibition; [4]): 37.2 ± 5.6% | Acoustic Startle (AU) (mean ± SEM) (prepulse inhibition; [4]): 1579.9 ± 171.1 AU | % PPI (mean ± SEM) (prepulse inhibition; [5]): 43.7 ± 3.7% | Acoustic Startle (AU) (mean ± SEM) (prepulse inhibition; [5]): 1856.8 ± 245.8 AU | attenuation of the effects of apomorphine on PPI (prepulse inhibition; COMPOUND C 60, 90, 120 mg/kg PO): None of the doses of COMPOUND C were associated with a statistically significant attenuation | AUC(0-inf) (in vivo; female): 591 ng·h/mL | AUC(0-t) (in vivo; female): 572 ng·h/mL | Cmax (in vivo; female): 308 ng/mL | MRT inf (in vivo; female): 4.78 h | MRT last (in vivo; female): 3.16 h | Tmax (in vivo; female): 0.5 h | half-life (in vivo; female): 4.73 h | AUC(0-inf) (in vivo; male): 1200 ng·h/mL | AUC(0-t) (in vivo; male): 1190 ng·h/mL | Cmax (in vivo; male): 775 ng/mL | MRT inf (in vivo; male): 2.8 h | MRT last (in vivo; male): 2.58 h | Tmax (in vivo; male): 0.5 h | half-life (in vivo; male): 2.94 h

CCOc1ccccc1OC[C@@H]1CN(C(=O)OC(C)OC(=O)[C@@H](N)C(C)C)CCO1 (stereo partly drawn) [COMPOUND A]
degradation accounted for by esterase and amidase enzymes ([1]; fresh human and rat plasma with amidase and esterase inhibitors): ~100% | Human proteolytic activity relative to rat proteolytic activity ([1]; plasma, 60 min incubation): about 3 fold | role of amidase in degradation (amidase): amidase activity played an important role | Clinical observation (tolerability) ([2]; 60 or 120 mg/kg PO): well tolerated | enantiomer R(+)-VLX in plasma ([2]; COMPOUND A 60 or 120 mg/kg PO, LLOQ 1.5 ng/mL): not detectable at most time points | plasma concentration of the derivative itself ([2]; COMPOUND A 60 or 120 mg/kg PO, LLOQ 3 ng/mL): not detectable; also recorded: below LLOQ in all the samples collected
